Measured values from PubChem BioAssay (NCI).
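Dose response: 5 concentrations. Exposure: 48 h. Format: 96-well plates. Endpoint: linear interpolation; highest concentration if not reached. Definition used: TGI = concentration required for complete inhibition of growth.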

Columns and labels:
Assay in all cases: NCI-60 cell line screen, 48 h
[1] = system: OVCAR-4 ovarian
[2] = system: HS 578T breast
[3] = system: HOP-62 NSCLC
[4] = system: MDA-N
[5] = system: RPMI-8226 leukemia
[6] = system: MCF7 breast
[7] = system: SN12C renal
[8] = system: OVCAR-8 ovarian
[9] = system: IGROV1 ovarian
[10] = system: CAKI-1 renal
[11] = system: KM12 colon
[12] = system: SK-OV-3 ovarian
[13] = system: PC-3 prostate
[14] = system: SNB-75 CNS
[15] = system: HCT-116 colon
[16] = system: T-47D breast
[17] = system: UACC-62 melanoma
[18] = system: RXF 393 renal
[19] = system: TK-10 renal
[20] = system: A498 renal
[21] = system: ACHN renal
[22] = system: BT-549 breast
[23] = system: LOX IMVI melanoma
[24] = system: HCT-15 colon
[25] = system: COLO 205 colon
[26] = system: UO-31 renal
[27] = system: NCI-H522 lung
[28] = system: CCRF-CEM leukemia
[29] = system: HT29 colon
[30] = system: OVCAR-3 ovarian
[31] = system: SK-MEL-5 melanoma
[32] = system: HL-60(TB) leukemia
[33] = system: MDA-MB-231 breast
[34] = system: MALME-3M melanoma
[35] = system: HOP-92 NSCLC
[36] = system: SW-620 colon
[37] = system: U251 CNS
[38] = system: NCI-H23 lung
[39] = system: 786-0 renal
[40] = system: OVCAR-5 ovarian
[41] = system: SF-268 CNS
[42] = system: SK-MEL-2 melanoma
[43] = system: NCI-H226 lung
[44] = system: EKVX NSCLC
[45] = system: MDA-MB-435
[46] = system: M14 melanoma
[47] = system: A549 NSCLC
[48] = system: K-562 leukemia
[49] = system: MOLT-4 leukemia
[50] = system: SF-295 CNS
[51] = system: DU-145 prostate
[52] = system: SK-MEL-28 melanoma
[53] = system: SNB-19 CNS
[54] = system: SF-539 CNS
[55] = system: NCI/ADR-RES ovarian
[56] = system: NCI-H460 lung
[57] = system: HCC-2998 colon
[58] = system: UACC-257 melanoma
[59] = system: SR leukemia

Work on `NC1C2C=CC(C2)C1C(=O)O` (stereo unspecified) yielded a TGI [1] greater than 100 µM, a TGI [2] greater than 100 µM and a TGI [3] greater than 100 µM. The TGI [4] was greater than 100 µM, the TGI [5] was greater than 100 µM and the TGI [6] was greater than 100 µM. It also gave a TGI [7] greater than 100 µM, a TGI [8] greater than 100 µM and a TGI [9] greater than 100 µM. It also gave a TGI [10] greater than 100 µM, a TGI [11] greater than 100 µM and a TGI [12] greater than 100 µM. The TGI [13] was greater than 100 µM, the TGI [14] was greater than 100 µM and the TGI [15] was greater than 100 µM. The TGI [16] was greater than 100 µM, the TGI [17] was greater than 100 µM and the TGI [18] was greater than 100 µM. It also gave a TGI [19] greater than 100 µM, a TGI [20] greater than 100 µM and a TGI [21] greater than 100 µM. It also gave a TGI [22] greater than 100 µM, a TGI [23] greater than 100 µM and a TGI [24] greater than 100 µM. For the same compound, the TGI [25] was greater than 100 µM, the TGI [26] was greater than 100 µM and the TGI [27] was greater than 100 µM. For the same compound, the TGI [28] was greater than 100 µM, the TGI [29] was greater than 100 µM and the TGI [30] was greater than 100 µM. For the same compound, the TGI [31] was greater than 100 µM, the TGI [32] was greater than 100 µM and the TGI [33] was greater than 100 µM. It also gave a TGI [34] greater than 100 µM, a TGI [35] greater than 100 µM and a TGI [36] greater than 100 µM. It also gave a TGI [37] greater than 100 µM, a TGI [38] greater than 100 µM and a TGI [39] greater than 100 µM. It also gave a TGI [40] greater than 100 µM, a TGI [41] greater than 100 µM and a TGI [42] greater than 100 µM. The TGI [43] was greater than 100 µM, the TGI [44] was greater than 100 µM and the TGI [45] was greater than 100 µM. It also gave a TGI [46] greater than 100 µM, a TGI [47] greater than 100 µM and a TGI [48] greater than 100 µM. It also gave a TGI [49] greater than 100 µM, a TGI [50] greater than 100 µM and a TGI [51] greater than 100 µM. For the same compound, the TGI [52] was greater than 100 µM, the TGI [53] was greater than 100 µM and the TGI [54] was greater than 100 µM. It also gave a TGI [55] greater than 100 µM.
With `COC(=O)N1C2C(C[C@@]1(C)C(=O)OC)c1ccccc1N2S(=O)(=O)c1ccccc1` (stereo partly specified) the TGI [1] was greater than 100 µM, the TGI [56] was greater than 100 µM and the TGI [2] was greater than 100 µM. The TGI [4] was greater than 100 µM, the TGI [5] was greater than 100 µM and the TGI [6] was greater than 100 µM. For the same compound, the TGI [8] was greater than 100 µM, the TGI [9] was greater than 100 µM and the TGI [10] was greater than 100 µM. For the same compound, the TGI [11] was greater than 100 µM, the TGI [12] was greater than 100 µM and the TGI [13] was greater than 100 µM. For the same compound, the TGI [14] was greater than 100 µM, the TGI [15] was greater than 100 µM and the TGI [16] was greater than 100 µM. The TGI [17] was greater than 100 µM, the TGI [18] was greater than 100 µM and the TGI [19] was greater than 100 µM. It also gave a TGI [21] greater than 100 µM, a TGI [57] greater than 100 µM and a TGI [22] greater than 100 µM. For the same compound, the TGI [23] was greater than 100 µM, the TGI [25] was greater than 100 µM and the TGI [26] was greater than 100 µM. It also gave a TGI [27] greater than 100 µM, a TGI [28] greater than 100 µM and a TGI [29] greater than 100 µM. For the same compound, the TGI [30] was greater than 100 µM, the TGI [58] was greater than 100 µM and the TGI [31] was greater than 100 µM. It also gave a TGI [32] greater than 100 µM, a TGI [33] greater than 100 µM and a TGI [34] greater than 100 µM. It also gave a TGI [35] greater than 100 µM, a TGI [36] greater than 100 µM and a TGI [38] greater than 100 µM. It also gave a TGI [39] greater than 100 µM, a TGI [40] greater than 100 µM and a TGI [41] greater than 100 µM. For the same compound, the TGI [42] was greater than 100 µM, the TGI [43] was greater than 100 µM and the TGI [44] was greater than 100 µM. For the same compound, the TGI [45] was greater than 100 µM, the TGI [46] was greater than 100 µM and the TGI [47] was greater than 100 µM. It also gave a TGI [48] greater than 100 µM, a TGI [49] greater than 100 µM and a TGI [50] greater than 100 µM. The TGI [51] was greater than 100 µM, the TGI [52] was greater than 100 µM and the TGI [53] was greater than 100 µM. It also gave a TGI [59] greater than 100 µM and a TGI [55] greater than 100 µM.
For `COc1ccc(C(SCCO)(c2ccc(OC)cc2)c2ccc(OC)cc2)cc1`, the TGI [1] was greater than 100 µM, the TGI [56] was 35.8 µM and the TGI [2] was 44.7 µM. The TGI [3] was 44.6 µM, the TGI [4] was 18.1 µM and the TGI [6] was 31.6 µM. It also gave a TGI [7] of 33.9 µM, a TGI [8] of 37.7 µM and a TGI [10] greater than 100 µM. The TGI [11] was 71.1 µM, the TGI [12] was 94.5 µM and the TGI [13] was 42.3 µM. For the same compound, the TGI [14] was 61.1 µM, the TGI [15] was 29.2 µM and the TGI [16] was 33.7 µM. For the same compound, the TGI [17] was 30.1 µM, the TGI [18] was 30.9 µM and the TGI [19] was 55 µM. The TGI [20] was 40.1 µM, the TGI [21] was 50.2 µM and the TGI [57] was 30.5 µM. It also gave a TGI [22] of 38.4 µM, a TGI [23] of 27.1 µM and a TGI [24] of 44.6 µM. The TGI [25] was 25.7 µM, the TGI [26] was 34.4 µM and the TGI [27] was 28.2 µM. The TGI [28] was 66 µM, the TGI [29] was 46 µM and the TGI [30] was 28.4 µM. The TGI [58] was 32.5 µM, the TGI [31] was 24.6 µM and the TGI [32] was 87.7 µM. For the same compound, the TGI [33] was 46.6 µM, the TGI [34] was 34.3 µM and the TGI [35] was 28.8 µM. For the same compound, the TGI [36] was 81.1 µM, the TGI [37] was 32.6 µM and the TGI [38] was 45.2 µM. For the same compound, the TGI [39] was 29.7 µM, the TGI [40] was 79.7 µM and the TGI [41] was 43.9 µM. It also gave a TGI [42] of 31.7 µM, a TGI [43] of 32.7 µM and a TGI [44] of 36.5 µM. The TGI [45] was 23.5 µM, the TGI [46] was 38.5 µM and the TGI [47] was 69.3 µM. For the same compound, the TGI [48] was 28.4 µM, the TGI [49] was 56.4 µM and the TGI [50] was 39.2 µM. For the same compound, the TGI [51] was greater than 100 µM, the TGI [52] was 38.6 µM and the TGI [53] was greater than 100 µM. For the same compound, the TGI [59] was 26.7 µM, the TGI [54] was 30.6 µM and the TGI [55] was 49.1 µM.
`CCOC(=O)C(CCSC)(CCSC)C(=O)OCC` was tested, and the TGI [1] was greater than 100 µM, the TGI [56] was greater than 100 µM and the TGI [2] was greater than 100 µM. For the same compound, the TGI [3] was greater than 100 µM, the TGI [4] was greater than 100 µM and the TGI [5] was greater than 100 µM. For the same compound, the TGI [6] was greater than 100 µM, the TGI [7] was greater than 100 µM and the TGI [8] was greater than 100 µM. It also gave a TGI [9] greater than 100 µM, a TGI [10] greater than 100 µM and a TGI [11] greater than 100 µM. It also gave a TGI [12] of 72.2 µM, a TGI [13] greater than 100 µM and a TGI [14] greater than 100 µM. It also gave a TGI [15] greater than 100 µM, a TGI [16] greater than 100 µM and a TGI [17] of 49.1 µM. For the same compound, the TGI [18] was greater than 100 µM, the TGI [19] was greater than 100 µM and the TGI [20] was greater than 100 µM. For the same compound, the TGI [21] was greater than 100 µM, the TGI [57] was greater than 100 µM and the TGI [22] was greater than 100 µM. It also gave a TGI [23] greater than 100 µM, a TGI [24] greater than 100 µM and a TGI [25] greater than 100 µM. It also gave a TGI [26] greater than 100 µM, a TGI [27] greater than 100 µM and a TGI [28] greater than 100 µM. The TGI [29] was greater than 100 µM, the TGI [30] was greater than 100 µM and the TGI [58] was greater than 100 µM. For the same compound, the TGI [31] was greater than 100 µM, the TGI [33] was greater than 100 µM and the TGI [34] was greater than 100 µM. It also gave a TGI [36] greater than 100 µM, a TGI [37] greater than 100 µM and a TGI [38] greater than 100 µM. The TGI [39] was greater than 100 µM, the TGI [40] was greater than 100 µM and the TGI [41] was greater than 100 µM. It also gave a TGI [42] greater than 100 µM, a TGI [43] greater than 100 µM and a TGI [44] greater than 100 µM. For the same compound, the TGI [45] was greater than 100 µM, the TGI [46] was greater than 100 µM and the TGI [47] was greater than 100 µM. For the same compound, the TGI [48] was greater than 100 µM, the TGI [49] was greater than 100 µM and the TGI [50] was greater than 100 µM. For the same compound, the TGI [51] was greater than 100 µM, the TGI [52] was greater than 100 µM and the TGI [53] was greater than 100 µM. It also gave a TGI [54] greater than 100 µM and a TGI [55] greater than 100 µM.
